Results published in US11318119B2 (Gilead Sciences, Inc., priority 2019, dated 2022).
Like-named read-outs stand apart in the source and are kept apart here.

Experiments:
in vitro = details: human, microsomes
Protocol: Liver Microsomal Stability Protocol
Test compounds and one control compound (verapamil) were tested in 3 different species in duplicate sets.
Reaction composition (in each incubation well) contains:
After plates were vortexed, they were centrifuged for 30 minutes to remove proteins. About 100 μL supernatant was removed to a new plate and diluted with 150 μL water. About 20 μL of the mixture was injected into LC/MS/MS system to monitor the compound's response. In vitro measured t1/2 was used to calculate Clint values.

[1] = tested on: single replication cycle recombinant virus containing the protease and reverse transcriptase coding regions of HIV-1 from a patient blood sample; type: cell-based; details: for mean fold change in susceptibility: mean over the resistant panel of Table 2
Source text: Resistance testing was done by Monogram Biosciences using their proprietary PhenoSense HIV assay. This assay evaluates drug susceptibility by using a single replication cycle recombinant virus containing the protease (amino acids 1-99 plus p7/p1/p6 gag cleavage sites) and reverse transcriptase (amino acids 1-304) coding regions of HIV-1 from a patient blood sample.

[2] = tested on: HIV-1 (IIIB) in MT-4 cells; assay: MT-4 HIV Assay (inhibition of HIV-1 replication, Cell Titer Glo readout); type: cell-based; details: Human immunodeficiency virus 1, MT4, 120 h, 5 days incubation
Protocol: (§1) Compounds were tested in a high-throughput 384-well assay format for their ability to inhibit the replication of HIV-1 (IIIB) in MT-4 cells. Compounds were serially diluted (1:3) in DMSO on 384-well polypropylene plates and further diluted 200-fold into complete RPMI media (10% FBS, 1% P/S) using the Biotek Micro Flow and Agilent ECHO acoustic dispenser. Each plate contained up to 8 test compounds, with negative (No Drug Control) and 5 uM AZT positive controls. MT-4 cells were pre-infected with 10 uL of either RPMI (mock-infected) or a fresh 1:250 dilution of an HIV-1 (IIIB) concentrated virus stock. Infected and uninfected MT-4 cells were further diluted in complete RPMI media and added to each plate using a Micro Flow dispenser. After 5 days incubation in a humidified and temperature controlled incubator (37° C.), Cell Titer Glo (Promega) was added to the assay plates to quantify the amount of luciferase.

recombinant HIV protease = biological target: T1, recombinant HIV protease (Human immunodeficiency virus type 1 group M subtype B, UniProt P04585); assay: HIV Protease Enzyme Inhibition (PI) Activity, fluorogenic enzymatic assay; type: biochemical
T1 construct: recombinant HIV protease
Protocol: HIV Protease Enzyme Inhibition (PI) Activity
Inhibitor potency against HIV protease can be measured using an enzymatic assay with a fluorogenic readout. To a reaction buffer containing 100 mM ammonium acetate at pH 5.3, 100 mM NaCl, 1 mM EDTA, 1 mM DTT, 0.25 mg/mL BSA and 1% DMSO are added 10 nM of recombinant HIV protease (concentration based on protein monomer) and test compound at one of various concentrations. After a 10-minute pre-incubation, the enzymatic reaction is initiated by the addition of the fluorogenic substrate (2-aminobenzoyl)Thr-Ile-Nle-(p-nitro)Phe-Gln-Arg (Bachem; Product No. H-2992) (SEQ ID NO: 1) to a final concentration of 40 μM. The total volume of the assay solution is 100 μL. The reaction is measured over 10 minutes on a Tecan Infinite M1000 plate reader using an excitation wavelength of 320 nm and a detection wavelength of 420 nm. The slopes of the progress curves are the measure of reaction rates. Reaction rates are plotted as a function of inhibitor concentration, and the data are fit with a four-parameter logistic fit using Graphpad PRISM software to yield IC50 values.

[3] = tested on: HIV-1 (IIIB) in MT-4 cells; assay: MT-4 HIV High Resolution Antiviral Assay; type: cell-based; details: EC95=(19)^1/hill coefficient x EC50
Protocol: as §1

[4] = Resistance mutations D30N L33F N88D L90M
[5] = Resistance mutations L10F L33F M46I I50V V82A N88D L89V
[6] = Resistance mutations L10F M46I I47V I50V I54V G73S I84V L90M
[7] = Resistance mutations L10F M46L I54V V82A 184V
[8] = Resistance mutations L10F V32I M46I I47V I50V I54L I84V
[9] = Resistance mutations L10F/L D30N I54V N88D L90M
[10] = Resistance mutations L10F/L D30N L33F I54L N88D L90M
[11] = Resistance mutations L10I I50 V82A L90M
[12] = Resistance mutations L10I L33F G48V I50L I54V/I V82A
[13] = Resistance mutations L10I L33F M46I I54V V82A I84V
[14] = Resistance mutations L10I L33F M46L G48V I54M V82A I84V L90M
[15] = Resistance mutations L10I L33F/L G48V G73S V82A
[16] = Resistance mutations L10I M46I G48V I50V V82A L90M
[17] = Resistance mutations L10I M46I I50V
[18] = Resistance mutations L10I M46L I54V V82A
[19] = Resistance mutations L10I M46L I54V V82F L90M
[20] = Resistance mutations L10I V32I L33F M46L I54L I84V L89V
[21] = Resistance mutations L10I V32I M46I I47V G48V I54M V82T L90M
[22] = Resistance mutations L10I V32I M46I I47V I50V I54L L90M
[23] = Resistance mutations L10V L33F I50L L90M
[24] = Resistance mutations L10V L33F M46I I54V V82A I84V L90M/L
[25] = Resistance mutations L10V/L M46I I50L V82A
[26] = Resistance mutations L33F M46I I50V L76V
[27] = Resistance mutations M46I L76V I84V
[28] = 10 nM recombinant HIV protease, pH 5.3, 40 μM fluorogenic substrate, read-out: HIV PI IC50

## COC(=O)N[C@H](C(=O)N[C@@H](Cc1ccccc1)[C@@H](O)CN(Cc1ccc(-c2ccccn2)cc1)NC(=O)[C@@H](NC(=O)OC)C(C)(C)C)C(C)(C)C [Atazanavir, methyl N-[(2S)-1-[2-[(2S,3S)-2-hydroxy-3-[[(2S)-2-(methoxycarbonylamino)-3,3-dimethylbutanoyl]amino]-4-phenylbutyl]-2-[(4-pyridin-2-ylphenyl)methyl]hydrazinyl]-3,3-dimethyl-1-oxobutan-2-yl]carbamate, reference compound]
In vitro
  half-life at 1 μM: 0.433 to 1.78 h
[1]; [4]
  Fold Change in EC50: 4.68
[1]; [5]
  Fold Change in EC50: 1.25
[1]; [6]
  Fold Change in EC50: 19
[1]; [7]
  Fold Change in EC50: 73
[1]; [8]
  Fold Change in EC50: 5.44
[1]; [9]
  Fold Change in EC50: 29
[1]; [10]
  Fold Change in EC50: 15
[1]; [11]
  Fold Change in EC50: 33
[1]; [12]
  Fold Change in EC50: 70
[1]; [13]
  Fold Change in EC50: 44
[1]; [14]
  Fold Change in EC50: 70
[1]; [15]
  Fold Change in EC50: >91
[1]; [16]
  Fold Change in EC50: 39
[1]; [17]
  Fold Change in EC50: 2.39
[1]; [18]
  Fold Change in EC50: 9.73
[1]; [19]
  Fold Change in EC50: 24
[1]; [20]
  Fold Change in EC50: 89
[1]; [21]
  Fold Change in EC50: 9.49
[1]; [22]
  Fold Change in EC50: 25
[1]; [23]
  Fold Change in EC50: >91
[1]; [24]
  Fold Change in EC50: 9.69
[1]; [25]
  Fold Change in EC50: 69
[1]; [26]
  Fold Change in EC50: 1.84
[1]; [27]
  Fold Change in EC50: 1.36
[1]
  mean fold change in susceptibility: 17.7

## CC(C)(C[C@]1(c2ccc(-c3ccc(S(C)(=O)=O)cc3)cc2)NC(=N)N([C@H](COC(=O)NC2(C(F)F)CC2)c2ccc(Cl)c(-c3ncnn3C(F)F)c2)C1=O)C(F)(F)F [Compound 1, (S)-2-(4-chloro-3-(1-(difluoromethyl)-1H-1,2,4-triazol-5-yl)phenyl)-2-((R)-2-imino-4-(4′-(methylsulfonyl)-[1,1′-biphenyl]-4-yl)-5-oxo-4-(3,3,3-trifluoro-2,2-dimethylpropyl)imidazolidin-1-yl)ethyl (1-(difluoromethyl)cyclopropyl)carbamate]
[2]
  EC50: 13.2 nM
Recombinant HIV protease; [28]
  IC50: 1.8 nM
[3]
  EC95: 24.9 nM

## CC(C)(C[C@]1(c2ccc(-c3cccc(S(C)(=O)=O)c3)cc2)NC(=N)N([C@H](COC(=O)NC2(C(F)F)CC2)c2ccc(Cl)c(-c3ncnn3C(F)F)c2)C1=O)C(F)(F)F [Compound 2]
[2]
  EC50: 27.5 nM
Recombinant HIV protease; [28]
  IC50: 2.9 nM

## CC(C)(C[C@]1(c2ccc(-c3ccc(S(C)(=O)=O)c(F)c3)cc2)NC(=N)N([C@H](COC(=O)NC2(C(F)F)CC2)c2ccc(Cl)c(-c3ncnn3C(F)F)c2)C1=O)C(F)(F)F [Compound 3]
[2]
  EC50: 11.1 nM
Recombinant HIV protease; [28]
  IC50: 2.9 nM

## CC(C)(C[C@]1(c2ccc(-c3ccc(S(C)(=O)=O)cc3F)cc2)NC(=N)N([C@H](COC(=O)NC2(C(F)F)CC2)c2ccc(Cl)c(-c3ncnn3C(F)F)c2)C1=O)C(F)(F)F [Compound 4]
[2]
  EC50: 11.3 nM
Recombinant HIV protease; [28]
  IC50: 2.4 nM

## CC(C)(C[C@]1(c2ccc(-c3ccc(F)cc3)cc2)NC(=N)N([C@H](COC(=O)NC2(C(F)F)CC2)c2ccc(Cl)c(-c3ncnn3C(F)F)c2)C1=O)C(F)(F)F [Compound 5]
[2]
  EC50: 63.1 nM
Recombinant HIV protease; [28]
  IC50: 4.5 nM

## CC(C)(C[C@]1(c2ccc(-c3cccc(F)c3)cc2)NC(=N)N([C@H](COC(=O)NC2(C(F)F)CC2)c2ccc(Cl)c(-c3ncnn3C(F)F)c2)C1=O)C(F)(F)F [Compound 6]
[2]
  EC50: 50 nM
Recombinant HIV protease; [28]
  IC50: 2.3 nM

## CC(C)(C[C@]1(c2ccc(-c3cnn(C(F)F)c3)cc2)NC(=N)N([C@H](COC(=O)NC2(C(F)F)CC2)c2ccc(Cl)c(-c3ncnn3C(F)F)c2)C1=O)C(F)(F)F [Compound 7]
[2]
  EC50: 7.8 nM
Recombinant HIV protease; [28]
  IC50: 1.8 nM
[3]
  EC95: 17.8 nM
[1]; [4]
  Fold Change in EC50: 3.62
[1]; [5]
  Fold Change in EC50: 0.58
[1]; [6]
  Fold Change in EC50: 3.51
[1]; [7]
  Fold Change in EC50: 0.91
[1]; [8]
  Fold Change in EC50: 1.08
[1]; [9]
  Fold Change in EC50: 5.32
[1]; [10]
  Fold Change in EC50: 2.57
[1]; [11]
  Fold Change in EC50: 1.7
[1]; [12]
  Fold Change in EC50: 0.72
[1]; [13]
  Fold Change in EC50: 2.49
[1]; [14]
  Fold Change in EC50: 2.9
[1]; [15]
  Fold Change in EC50: 2.34
[1]; [16]
  Fold Change in EC50: 9.22
[1]; [17]
  Fold Change in EC50: 2.2
[1]; [18]
  Fold Change in EC50: 5.84
[1]; [19]
  Fold Change in EC50: 4.33
[1]; [20]
  Fold Change in EC50: 0.82
[1]; [21]
  Fold Change in EC50: 2.84
[1]; [22]
  Fold Change in EC50: 3.92
[1]; [23]
  Fold Change in EC50: 3.09
[1]; [24]
  Fold Change in EC50: 2.6
[1]; [25]
  Fold Change in EC50: 4.77
[1]; [26]
  Fold Change in EC50: 1.39
[1]; [27]
  Fold Change in EC50: 2.04
[1]
  mean fold change in susceptibility: 2.4

## CC(C)(C[C@]1(c2ccc(-c3ccn(C(F)F)n3)cc2)NC(=N)N([C@H](COC(=O)NC2(C(F)F)CC2)c2ccc(Cl)c(-c3ncnn3C(F)F)c2)C1=O)C(F)(F)F [Compound 8, (S)-2-(4-chloro-3-(1-(difluoromethyl)-1H-1,2,4-triazol-5-yl)phenyl)-2-((R)-4-(4-(1-(difluoromethyl)-1H-pyrazol-3-yl)phenyl)-2-imino-5-oxo-4-(3,3,3-trifluoro-2,2-dimethylpropyl)imidazolidin-1-yl)ethyl (1-(difluoromethyl)cyclopropyl)carbamate]
[2]
  EC50: 8.4 nM
Recombinant HIV protease; [28]
  IC50: 2 nM

## CC(C)(C[C@]1(c2ccc(-c3cn(C(F)F)cn3)cc2)NC(=N)N([C@H](COC(=O)NC2(C(F)F)CC2)c2ccc(Cl)c(-c3ncnn3C(F)F)c2)C1=O)C(F)(F)F [Compound 9, (S)-2-(4-chloro-3-(1-(difluoromethyl)-1H-1,2,4-triazol-5-yl)phenyl)-2-((R)-4-(4-(1-(difluoromethyl)-1H-imidazol-4-yl)phenyl)-2-imino-5-oxo-4-(3,3,3-trifluoro-2,2-dimethylpropyl)imidazolidin-1-yl)ethyl (1-(difluoromethyl)cyclopropyl)carbamate]
[2]
  EC50: 26.3 nM
Recombinant HIV protease
  IC50: 5.7 nM
